pEC50: −log10 of the molar value.

T1 sequence (P14902 whole entry): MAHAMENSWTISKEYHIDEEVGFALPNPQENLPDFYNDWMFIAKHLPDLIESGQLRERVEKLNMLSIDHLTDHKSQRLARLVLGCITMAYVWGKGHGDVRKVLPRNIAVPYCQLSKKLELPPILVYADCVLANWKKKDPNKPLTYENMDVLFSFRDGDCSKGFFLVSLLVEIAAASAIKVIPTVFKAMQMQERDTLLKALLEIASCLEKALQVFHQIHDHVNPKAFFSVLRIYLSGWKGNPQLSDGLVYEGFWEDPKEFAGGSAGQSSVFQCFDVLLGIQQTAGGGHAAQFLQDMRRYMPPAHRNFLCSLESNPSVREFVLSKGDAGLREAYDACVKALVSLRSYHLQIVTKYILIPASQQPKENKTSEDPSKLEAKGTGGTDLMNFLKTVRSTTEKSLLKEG

The first assay addresses T1, IDO1 (Homo sapiens, UniProt P14902).
T1 construct: HeLa cells were treated with a test compound in the presence of IFNγ, which induces IDO1 expression; host or cells: H1-HeLa cells, IDO1 induced with IFNγ
As to the kind of experiment: Cell-based (HeLa) assay for measurement of IDO1 inhibition (kynurenine levels in supernatant after IFNγ induction). Particulars: HeLa cells, IFNγ-induced IDO1, kynurenine in supernatant after 48 hour incubation; geometric mean of a minimum of four determinations. Summed up:
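IDO1 activity is read as kynurenine released into the medium, detected with Ehrlich's reagent (p-dimethylaminobenzaldehyde) at 480 nm after TCA treatment. HeLa cells were exposed 48 h to compounds in 0.5% DMSO alongside IFNγ induction. Values normalized to no-IFNγ and IFNγ controls; four-parameter EC50 given as geometric mean of ≥4 determinations.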
As to `Cn1nccc1CNc1nc2c(F)c(F)cc(/C(=N/O)Nc3ccc(F)c(Cl)c3)c2[nH]1` [Example 299, N-(3-chloro-4-fluorophenyl)-4,5-difluoro-N′-hydroxy-2-(((1-methyl-1H-pyrazol-5-yl)methyl)amino)-1H-benzo[d]imidazole-7-carboximidamide], the pEC50 is 5.46.

The same assay, now with this note: HeLa cells, IFNγ-induced IDO1, kynurenine in supernatant, 48 hour incubation; geometric mean of a minimum of four determinations.
The molecule `O/N=C(\Nc1ccc(F)c(Cl)c1)c1cc(F)c(F)c2nc(NCCn3cccn3)[nH]c12` [Example 300, 2-((2-(1H-pyrazol-1-yl)ethyl)amino)-N-(3-chloro-4-fluorophenyl)-4,5-difluoro-N′-hydroxy-1H-benzo[d]imidazole-7-carboximidamide] gave a pEC50 of 5.45.
As to `CN(C)C(=O)CNc1nc2c(F)c(F)cc(/C(=N/O)Nc3ccc(F)c(Cl)c3)c2[nH]1` [Example 301, 2-((7-(N-(3-chloro-4-fluorophenyl)-N′-hydroxycarbamimidoyl)-4,5-difluoro-1H-benzo[d]imidazol-2-yl)amino)-N,N-dimethylacetamide], the pEC50 was 5.40.
As to `CC(C)(O)Cc1nc2c(F)c(F)cc(/C(=N/O)Nc3ccc(F)c(Cl)c3)c2[nH]1` [Example 302, N-(3-chloro-4-fluorophenyl)-4,5-difluoro-N′-hydroxy-2-(2-hydroxy-2-methylpropyl)-1H-benzo[d]imidazole-7-carboximidamide], the pEC50 was less than 5.00.
Still for that read-out and setting: next, `CN(C)CCCCNc1nc2c(F)c(F)cc(/C(=N/O)Nc3ccc(F)c(Cl)c3)c2[nH]1` [Example 303, N-(3-chloro-4-fluorophenyl)-2-((4-(dimethylamino)butyl)amino)-4,5-difluoro-N′-hydroxy-1H-benzo[d]imidazole-7-carboximidamide]: 5.53.
The molecule `O/N=C(\Nc1ccc(F)c(Cl)c1)c1cc(F)c(F)c2nc(NCC3CCCNC3)[nH]c12` (stereo not drawn) [Example 304, N-(3-chloro-4-fluorophenyl)-4,5-difluoro-N′-hydroxy-2-((piperidin-3-ylmethyl)amino)-1H-benzo[d]imidazole-7-carboximidamide] had a pEC50 of less than 5.00.
`CN1CCCCC1Cc1nc2nccc(/C(=N/O)Nc3ccc(F)c(Cl)c3)c2[nH]1` (stereo not drawn) [Example 305, N-(3-chloro-4-fluorophenyl)-N′-hydroxy-2-((1-methylpiperidin-2-yl)methyl)-1H-imidazo[4,5-b]pyridine-7-carboximidamide] had a pEC50 of 5.46.
In turn, `O/N=C(\Nc1cccc(Br)c1)c1ccnc2nc(NCCN3CCOCC3)[nH]c12` [Example 306, N-(3-bromophenyl)-N′-hydroxy-2-((2-morpholinoethyl)amino)-1H-imidazo[4,5-b]pyridine-7-carboximidamide] gave a pEC50 of 6.17.
For the molecule `COc1c(F)cc(/C(=N/O)Nc2ccc(F)c(Cl)c2)c2[nH]cnc12` [Example 307, N-(3-chloro-4-fluorophenyl)-5-fluoro-N′-hydroxy-4-methoxy-1H-benzo[d]imidazole-7-carboximidamide], the pEC50 was 6.68.
Molecule `O/N=C(\Nc1ccc(F)c(Cl)c1)c1ccnc2nc(CC3CCCCN3)[nH]c12` (stereo not drawn) [Example 325, N-(3-chloro-4-fluorophenyl)-N′-hydroxy-2-(piperidin-2-ylmethyl)-1H-imidazo[4,5-b]pyridine-7-carboximidamide] showed a pEC50 of less than 5.00.
In turn, `CC(CN(C)C)c1nc2nccc(/C(=N/O)Nc3ccc(F)c(Cl)c3)c2[nH]1` (stereo not drawn) [Example 326, N-(3-chloro-4-fluorophenyl)-2-(1-(dimethylamino)propan-2-yl)-N′-hydroxy-1H-imidazo[4,5-b]pyridine-7-carboximidamide] showed a pEC50 of 5.39.
`CNC(C)Cc1nc2nccc(/C(=N/O)Nc3ccc(F)c(Cl)c3)c2[nH]1` (stereo not drawn) [Example 327, N-(3-chloro-4-fluorophenyl)-N′-hydroxy-2-(2-(methylamino)propyl)-1H-imidazo[4,5-b]pyridine-7-carboximidamide] had a pEC50 of 5.12.
Consider `CC(Cc1nc2nccc(/C(=N/O)Nc3ccc(F)c(Cl)c3)c2[nH]1)N(C)C` (stereo not drawn) [Example 328, N-(3-chloro-4-fluorophenyl)-2-(2-(dimethylamino)propyl)-N′-hydroxy-1H-imidazo[4,5-b]pyridine-7-carboximidamide], for which the negative-log EC50 (pEC50) was 5.49. Against the preceding molecule, the pEC50 is 0.37 log units higher.
On to `O/N=C(\Nc1ccc(F)c(Cl)c1)c1ccnc2nc(CC3CCCN3)[nH]c12` (stereo not drawn) [Example 329, N-(3-chloro-4-fluorophenyl)-N′-hydroxy-2-(pyrrolidin-2-ylmethyl)-1H-imidazo[4,5-b]pyridine-7-carboximidamide], for which the pEC50 was 5.30.
In the case of `O/N=C(\Nc1cccc(Cl)c1)c1cc(F)c(F)c2nc(NCCN3CCCC3)[nH]c12` [Example 330, N-(3-chlorophenyl)-4,5-difluoro-N′-hydroxy-2-((2-(pyrrolidin-1-yl)ethyl)amino)-1H-benzo[d]imidazole-7-carboximidamide], the negative logarithm of the EC50 (pEC50) is 6.38.
For `O/N=C(\Nc1cccc(Br)c1)c1cc(F)c(F)c2nc(NCCN3CCCC3)[nH]c12` [Example 331, N-(3-bromophenyl)-4,5-difluoro-N′-hydroxy-2-((2-(pyrrolidin-1-yl)ethyl)amino)-1H-benzo[d]imidazole-7-carboximidamide], the pEC50 was 6.16.
On the same count and under the same terms, next, `NCCNc1nc2c(F)c(F)cc(/C(=N/O)Nc3ccc(F)c(Cl)c3)c2[nH]1` [Example 333, 2-((2-aminoethyl)amino)-N-(3-chloro-4-fluorophenyl)-4,5-difluoro-N′-hydroxy-1H-benzo[d]imidazole-7-carboximidamide]: 5.86.
With `CC(=O)NCCNc1nc2c(F)c(F)cc(/C(=N/O)Nc3ccc(F)c(Cl)c3)c2[nH]1` [Example 334, N-(2-((7-(N-(3-chloro-4-fluorophenyl)-N′-hydroxycarbamimidoyl)-4,5-difluoro-1H-benzo[d]imidazol-2-yl)amino)ethyl)acetamide], the pEC50 is 5.21.
The molecule `CS(=O)(=O)NCCNc1nc2c(F)c(F)cc(/C(=N/O)Nc3ccc(F)c(Cl)c3)c2[nH]1` [Example 335, N-(3-chloro-4-fluorophenyl)-4,5-difluoro-N′-hydroxy-2-((2-(methylsulfonamido)ethyl)amino)-1H-benzo[d]imidazole-7-carboximidamide] had a pEC50 of less than 5.00.
In the case of `O=S(=O)(NCCNc1nc2c(F)c(F)cc(/C(=N/O)Nc3ccc(F)c(Cl)c3)c2[nH]1)C1CC1` [Example 336, N-(3-chloro-4-fluorophenyl)-2-((2-(cyclopropanesulfonamido)ethyl)amino)-4,5-difluoro-N′-hydroxy-1H-benzo[d]imidazole-7-carboximidamide], the pEC50 is less than 5.00.
Consider `COC(=O)NCCNc1nc2c(F)c(F)cc(/C(=N/O)Nc3ccc(F)c(Cl)c3)c2[nH]1` [Example 337, Methyl (2-((7-(N-(3-chloro-4-fluorophenyl)-N′-hydroxycarbamimidoyl)-4,5-difluoro-1H-benzo[d]imidazol-2-yl)amino)ethyl)carbamate], for which the pEC50 is 5.36.
Consider `NS(=O)(=O)NCCNc1nc2c(F)c(F)cc(/C(=N/O)Nc3ccc(F)c(Cl)c3)c2[nH]1` [Example 338, N-(3-chloro-4-fluorophenyl)-4,5-difluoro-N′-hydroxy-2-((2-(sulfamoylamino)ethyl)amino)-1H-benzo[d]imidazole-7-carboximidamide], for which the pEC50 was less than 5.00.
Turning to `O=S(=O)(NCCNc1nc2c(F)c(F)cc(/C(=N/O)Nc3ccc(F)c(Cl)c3)c2[nH]1)c1ccccc1` [Example 339, N-(3-chloro-4-fluorophenyl)-4,5-difluoro-N′-hydroxy-2-((2-(phenylsulfonamido)ethyl)amino)-1H-benzo[d]imidazole-7-carboximidamide], the pEC50 is less than 5.00.
Still for that read-out and setting: the figure for `N#CCCNc1nc2c(F)c(F)cc(/C(=N/O)Nc3ccc(F)c(Cl)c3)c2[nH]1` [Example 340, N-(3-chloro-4-fluorophenyl)-2-((2-cyanoethyl)amino)-4,5-difluoro-N′-hydroxy-1H-benzo[d]imidazole-7-carboximidamide] is 5.75; for `CCNC(=O)NCCNc1nc2c(F)c(F)cc(/C(=N/O)Nc3ccc(F)c(Cl)c3)c2[nH]1` [Example 341, N-(3-chloro-4-fluorophenyl)-2-((2-(3-ethylureido)ethyl)amino)-4,5-difluoro-N′-hydroxy-1H-benzo[d]imidazole-7-carboximidamide] it is less than 5.00.
Same read-out and setting: the figure for `O/N=C(\Nc1ccc(F)c(Cl)c1)c1cc(F)c(F)c2nc(NCc3ccccn3)[nH]c12` [Example 342, N-(3-chloro-4-fluorophenyl)-4,5-difluoro-N′-hydroxy-2-((pyridin-2-ylmethyl)amino)-1H-benzo[d]imidazole-7-carboximidamide] is 5.07.
Turning to `O/N=C(\Nc1ccc(F)c(Cl)c1)c1cc(F)c(F)c2nc(NCc3cccnc3)[nH]c12` [Example 343, N-(3-chloro-4-fluorophenyl)-4,5-difluoro-N′-hydroxy-2-((pyridin-3-ylmethyl)amino)-1H-benzo[d]imidazole-7-carboximidamide], the pEC50 was 5.41.
Molecule `Cn1ccnc1CCNc1nc2c(F)c(F)cc(/C(=N/O)Nc3ccc(F)c(Cl)c3)c2[nH]1` [Example 344] showed a pEC50 of 5.51.
Take `ON=C(Nc1ccc(F)c(Cl)c1)c1cc(F)c(F)c2nc(NCc3ncc[nH]3)[nH]c12` [Example 345, 2-(((1H-imidazol-2-yl)methyl)amino)-N-(3-chloro-4-fluorophenyl)-4,5-difluoro-N′-hydroxy-1H-benzo[d]imidazole-7-carboximidamide]: the pEC50 was 5.42.
Still for that read-out and setting: next, `ON=C(Nc1ccc(F)c(Cl)c1)c1cc(F)c(F)c2nc(Cl)[nH]c12` [Example 346, 2-chloro-N-(3-chloro-4-fluorophenyl)-4,5-difluoro-N′-hydroxy-1H-benzo[d]imidazole-7-carboximidamide]: 5.07.

The term pEC50 denotes the EC50 on a negative log10 scale, so that one unit is a factor of ten.

Values taken from US9951065B2 (Gilead Sciences, Inc., priority 2015, dated 2018).
